According to ChEMBL document CHEMBL4699537, “Chalcones as Modulators of Neutrophil Oxidative Burst under Physiological and High Glucose Conditions” (J Nat Prod, 2020):

What was measured:
Neutrophil [1] = assay: Effect on cell viability in human neutrophils assessed as decrease in cell viability at 100 uM after 1 hr by Propidium staining based flow cytometric analysis
[2] = Inhibition of PMA-induce ROS/RNS generation in human neutrophils measured up to 30 mins in presence of 5.5 mM glucose by luminol-amplified chemiluminescence method; format: functional, tissue-based; details: Neutrophil, 0.5 h
[3] = Inhibition of PMA-induce ROS/RNS generation in human neutrophils measured up to 30 mins in presence of 30 mM glucose by luminol-amplified chemiluminescence method; format: functional, tissue-based; details: Neutrophil, 0.5 h
[4] = Ratio of IC50 for inhibition of PMA-induce ROS/RNS generation in human neutrophils measured up to 30 mins in presence of 30 mM glucose to IC50 for inhibition of PMA-induce ROS/RNS generation in human neutrophils measured up to 30 mins in presence of 5.5 mM glucose; format: functional, Neutrophil
Neutrophil [5] = assay: Effect on cell viability in human neutrophils assessed as decrease in cell viability at 50 uM after 1 hr by Propidium staining based flow cytometric analysis
Neutrophil [6] = assay: Effect on cell viability in human neutrophils assessed as decrease in cell viability at 12.5 uM after 1 hr by Propidium staining based flow cytometric analysis
[7] = Inhibition of PMA-induce ROS/RNS generation in human neutrophils at 12.5 uM measured up to 30 mins in presence of 30 mM glucose by luminol-amplified chemiluminescence method relative to control; format: functional, Neutrophil; details: time min <=30
[8] = Inhibition of PMA-induce ROS/RNS generation in human neutrophils at 3.1 uM measured up to 30 mins in presence of 5.5 mM glucose by luminol-amplified chemiluminescence method relative to control; format: functional, Neutrophil; details: time min <=30
Neutrophil [9] = assay: Effect on cell viability in human neutrophils assessed as decrease in cell viability at 3.1 uM after 1 hr by Propidium staining based flow cytometric analysis
[10] = Inhibition of PMA-induce ROS/RNS generation in human neutrophils at 3.1 uM measured up to 30 mins in presence of 30 mM glucose by luminol-amplified chemiluminescence method relative to control; format: functional, Neutrophil; details: time min <=30
[11] = Inhibition of PMA-induce ROS/RNS generation in human neutrophils at 6.3 uM measured up to 30 mins in presence of 5.5 mM glucose by luminol-amplified chemiluminescence method relative to control; format: functional, Neutrophil; details: time min <=30
Neutrophil [12] = assay: Effect on cell viability in human neutrophils assessed as decrease in cell viability at 25 uM after 1 hr by Propidium staining based flow cytometric analysis
[13] = Inhibition of PMA-induce ROS/RNS generation in human neutrophils at 25 uM measured up to 30 mins in presence of 5.5 mM glucose by luminol-amplified chemiluminescence method relative to control; format: functional, Neutrophil; details: time min <=30
[14] = Inhibition of PMA-induce ROS/RNS generation in human neutrophils at 25 uM measured up to 30 mins in presence of 30 mM glucose by luminol-amplified chemiluminescence method relative to control; format: functional, Neutrophil; details: time min <=30
[15] = Inhibition of PMA-induce ROS/RNS generation in human neutrophils at 12.5 uM measured up to 30 mins in presence of 5.5 mM glucose by luminol-amplified chemiluminescence method relative to control; format: functional, Neutrophil; details: time min <=30
Neutrophil [16] = assay: Effect on cell viability in human neutrophils assessed as death cell at 100 uM in presence of 30 mM glucose after 1 hr by Propidium staining based flow cytometric analysis (reference value: 0.8 +/- 0.13 %)
Neutrophil [17] = assay: Effect on cell viability in human neutrophils assessed as death cell at 100 uM in presence of 5.5 mM glucose after 1 hr by Propidium staining based flow cytometric analysis (reference value: 0.5 +/- 0.07 %)
Neutrophil [18] = assay: Effect on cell viability in human neutrophils assessed as death cell at 6.3 uM in presence of 30 mM glucose after 1 hr by Propidium staining based flow cytometric analysis (reference value: 0.8 +/- 0.13 %)
Neutrophil [19] = assay: Effect on cell viability in human neutrophils assessed as decrease in cell viability at 6.3 uM after 1 hr by Propidium staining based flow cytometric analysis
Neutrophil [20] = assay: Effect on cell viability in human neutrophils assessed as death cell at 6.3 uM in presence of 5.5 mM glucose after 1 hr by Propidium staining based flow cytometric analysis (reference value: 0.5 +/- 0.07 %)
[21] = Inhibition of PMA-induce NET production in human neutrophils at 50 uM incubated for 30 mins in presence of 30 mM glucose by SytoxGreen staining based fluorescence assay relative to control; format: functional; details: Neutrophil, 0.5 h
Neutrophil [22] = assay: Inhibition of PMA-induce NET production in human neutrophils incubated for 30 mins in presence of 30 mM glucose by SytoxGreen staining based fluorescence assay; format: functional, tissue-based
[23] = Inhibition of PMA-induce ROS/RNS generation in human neutrophils at 6.3 uM measured up to 30 mins in presence of 30 mM glucose by luminol-amplified chemiluminescence method relative to control; format: functional, Neutrophil; details: time min <=30

COc1cc(O)c(C(=O)/C=C/c2ccc(OC)c(OC)c2)c(OC)c1
Activity (Neutrophil [1]): Non-Toxic | IC50 [2]: 78 µM | IC50 [3]: 74 µM

COc1ccc(/C=C/C(=O)c2ccccc2O)cc1OC
Ratio IC50 [4]: 2 | IC50 [2]: 6.4 µM | Activity (Neutrophil [5]): Non-Toxic | IC50 [3]: 15 µM

Cc1cccc(/C=C/C(=O)c2ccccc2O)c1
Ratio IC50 [4]: 2 | Activity (Neutrophil [6]): Non-Toxic | Imax [7]: 47% | IC50 [2]: 2.8 µM

COc1ccc(/C=C/C(=O)c2c(O)cc(OC)cc2OC)cc1 [FLAVOKAWAIN A]
Imax [8]: 13% | Activity (Neutrophil [9]): Non-Toxic | Imax [10]: 19%

COc1ccc(/C=C/C(=O)c2ccccc2)cc1OC
Activity (Neutrophil [1]): Non-Toxic | IC50 [2]: 15 µM | IC50 [3]: 20 µM

O=C(/C=C/c1ccc(O)cc1)c1ccccc1O
IC50 [2]: 1.6 µM | Activity (Neutrophil [5]): Non-Toxic | IC50 [3]: 1.5 µM

O=C(/C=C/c1ccc(O)cc1O)c1ccc(O)cc1O
Activity (Neutrophil [6]): Non-Toxic | IC50 [2]: 2.9 µM | IC50 [3]: 3 µM

COc1cc(O)c(C(=O)/C=C/c2cc(OC)c(OC)c(OC)c2)c(OC)c1
Activity (Neutrophil [9]): Non-Toxic | Imax [11]: 25% | Imax [10]: 18%

O=C(/C=C/c1ccc(Cl)cc1)c1ccccc1 [4-CHLORO CHALCONE]
Activity (Neutrophil [6]): Non-Toxic | IC50 [2]: 5.4 µM | IC50 [3]: 5.3 µM

COc1ccc(/C=C/C(=O)c2ccccc2O)cc1
Activity (Neutrophil [12]): Non-Toxic | Imax [13]: 50% | Imax [14]: 32%

COc1ccc(/C=C/C(=O)c2ccc(O)cc2O)cc1OC
Activity (Neutrophil [6]): Non-Toxic | IC50 [2]: 6.4 µM | IC50 [3]: 7 µM

O=C(/C=C/c1ccc(O)cc1)c1ccccc1 [4-HYDROXYCHALCONE]
IC50 [2]: 8.8 µM | Activity (Neutrophil [5]): Non-Toxic | IC50 [3]: 11.6 µM

O=C(/C=C/c1ccccc1O)c1ccccc1
IC50 [2]: 6.7 µM | Activity (Neutrophil [5]): Non-Toxic | IC50 [3]: 5 µM

O=C(/C=C/c1ccccc1O)c1ccccc1O
Activity (Neutrophil [12]): Non-Toxic | IC50 [2]: 5.8 µM | IC50 [3]: 5.8 µM

COc1ccc(/C=C/C(=O)c2ccc(O)cc2O)cc1
Imax [15]: 46% | Activity (Neutrophil [6]): Non-Toxic | Imax [7]: 44%

O=C(/C=C/c1ccc(O)cc1O)c1ccccc1
Activity (Neutrophil [12]): Non-Toxic | IC50 [2]: 13 µM | IC50 [3]: 12 µM

O=C(/C=C/c1ccccc1)c1ccccc1 [CHALCONE]
Ratio IC50 [4]: 2 | Activity (Neutrophil [16]): 5% | IC50 [2]: 13 µM | Activity (Neutrophil [17]): 0.6% | Activity (Neutrophil [5]): Non-Toxic | IC50 [3]: 27 µM

COc1cc(/C=C/C(=O)c2ccccc2O)cc(OC)c1OC
IC50 [2]: 3.4 µM | Activity (Neutrophil [5]): Non-Toxic | IC50 [3]: 3 µM

O=C(/C=C/c1cccc(O)c1)c1ccccc1 [3-HYDROXY CHALCONE]
Activity (Neutrophil [1]): Non-Toxic | IC50 [2]: 27 µM | IC50 [3]: 22.3 µM

COc1cccc(/C=C/C(=O)c2ccccc2O)c1
Activity (Neutrophil [12]): Non-Toxic | Ratio IC50 [4]: 2 | IC50 [2]: 3 µM | IC50 [3]: 5.7 µM

COc1cc(/C=C/C(=O)c2ccccc2O)ccc1O
Activity (Neutrophil [18]): 0.4% | Activity (Neutrophil [19]): Non-Toxic | Activity (Neutrophil [20]): 0.4% | IC50 [2]: 1 µM | IC50 [3]: 2 µM

O=C(/C=C/c1ccc(O)c(O)c1)c1c(O)cc(O)cc1O [3,4,2',4',6'-PENTAHYDROXYCHALCONE]
inhibition at 50 µM [21]: 48% | inhibition (Neutrophil [22]): Dose-dependent effect | IC50 [2]: 4.4 µM | Activity (Neutrophil [5]): Non-Toxic | IC50 [3]: 5 µM

Cc1cc(C)c(/C=C/C(=O)c2ccccc2O)c(C)c1
Activity (Neutrophil [9]): Non-Toxic | Imax [11]: 26% | Imax [10]: 25%

COc1ccccc1/C=C/C(=O)c1ccccc1O
Activity (Neutrophil [19]): Non-Toxic | Imax [11]: 50% | Imax [23]: 34%

O=C(/C=C/c1ccc(Cl)cc1Cl)c1ccccc1O
Imax [15]: 30% | Activity (Neutrophil [6]): Non-Toxic | Imax [7]: 28%
